Results: ChEMBL document CHEMBL1201862, “PubChem BioAssay data set” (2004)
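Results reflect a 48-hour exposure of cells in 96-well plates to compound at five concentrations. GI50 marks 50% less growth.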 Calls of active or inactive are those of the source. Cut-off read from the data, not from the text of the source: active = GI50 up to about 1.1 µM and inactive = higher.

How the values were obtained:
Test in all cases: inhibition of tumour cell growth, NCI panel, 48 h
KM12 = test system: KM12
M14 = test system: M14
COLO 205 = test system: COLO 205
SF-268 = test system: SF-268
EKVX = test system: EKVX
NCI-H522 = test system: NCI-H522
HT-29 = test system: HT-29
SN12C = test system: SN12C
IGROV-1 = test system: IGROV-1
HOP-92 = test system: HOP-92
SNB-19 = test system: SNB-19
NCI-H23 = test system: NCI-H23
K562 = test system: K562
OVCAR-4 = test system: OVCAR-4
SK-MEL-28 = test system: SK-MEL-28
SNB-78 = test system: SNB-78
DMS-273 = test system: DMS-273
LXFL 529 = test system: LXFL 529
NCI-H460 = test system: NCI-H460
DMS-114 = test system: DMS-114

SMILES | GI50 (KM12) | GI50 (M14) | GI50 (COLO 205) | GI50 (SF-268) | GI50 (EKVX) | GI50 (NCI-H522) | GI50 (HT-29) | GI50 (SN12C) | GI50 (IGROV-1) | GI50 (HOP-92) | GI50 (SNB-19) | GI50 (NCI-H23) | GI50 (K562) | GI50 (OVCAR-4) | GI50 (SK-MEL-28) | GI50 (SNB-78) | GI50 (DMS-273) | GI50 (LXFL 529) | GI50 (NCI-H460) | GI50 (DMS-114)
COc1ccc(-c2cc(O)c3cc(C)cnc3n2)cc1 | 3.56 µM (inactive) | 3.94 µM (inactive) | 3.22 µM (inactive) | 6.81 µM (inactive) | 37 µM (inactive) | 4.01 µM (inactive) | 2.21 µM (inactive) | 5.13 µM (inactive) | 4.12 µM (inactive) | 13.8 µM (inactive) | > 100 µM (inactive) | 6.19 µM (inactive) | 2.29 µM (inactive) | 33.9 µM (inactive) | 28.6 µM (inactive) |  |  |  |  | 
COc1ccc(NC(=O)/C(=C/c2ccc(N(CCC#N)CCC#N)cc2)NC(=O)c2cc([N+](=O)[O-])ccc2Cl)cc1 | 68.2 µM (inactive) | > 100 µM (inactive) | 59.8 µM (inactive) | 27.2 µM (inactive) | 52.1 µM (inactive) | 4.27 µM (inactive) |  | > 100 µM (inactive) | 65.9 µM (inactive) | > 100 µM (inactive) | > 100 µM (inactive) | > 100 µM (inactive) | 6.76 µM (inactive) | > 100 µM (inactive) | 53.5 µM (inactive) | > 100 µM (inactive) | 34.4 µM (inactive) | 8.89 µM (inactive) |  | 
CC1=CC2=C(C=O)C(=O)[C@](C)(O)[C@@H](O)C2=CO1 | 33.3 µM (inactive) |  | 28.1 µM (inactive) | 24.9 µM (inactive) | 46.9 µM (inactive) | 17.2 µM (inactive) | 37.7 µM (inactive) | 28.6 µM (inactive) | 32.1 µM (inactive) | > 65.5 µM (inactive) | 0.982 µM (active) | 37.2 µM (inactive) | 27.9 µM (inactive) | 39.1 µM (inactive) | 25.2 µM (inactive) | 38.5 µM (inactive) | 28.9 µM (inactive) |  | 29.9 µM (inactive) | 
Cc1cc(OCC(O)CO)ccc1Cl (configuration not stated) | > 100 µM (inactive) | > 100 µM (inactive) | > 100 µM (inactive) | > 100 µM (inactive) | > 100 µM (inactive) | > 100 µM (inactive) | > 100 µM (inactive) | > 100 µM (inactive) | > 100 µM (inactive) | > 100 µM (inactive) | > 100 µM (inactive) | > 100 µM (inactive) | > 100 µM (inactive) | > 100 µM (inactive) | > 100 µM (inactive) |  | > 100 µM (inactive) | > 100 µM (inactive) | > 100 µM (inactive) | > 100 µM (inactive)
C=CCN1C(=O)/C(=C/c2ccccc2)N=C1SC1OC(COC(=O)c2ccccc2)C(OC(=O)c2ccccc2)C1OC(=O)c1ccccc1 (configuration not stated) | > 100 µM (inactive) |  | > 100 µM (inactive) |  | > 100 µM (inactive) | 10.4 µM (inactive) |  |  | > 100 µM (inactive) | 60.5 µM (inactive) |  | > 100 µM (inactive) | 46.2 µM (inactive) | > 100 µM (inactive) | > 100 µM (inactive) |  |  |  | > 100 µM (inactive) | 
COC(=N)C(C)C | > 100 µM (inactive) | > 100 µM (inactive) | > 100 µM (inactive) | > 100 µM (inactive) |  | > 100 µM (inactive) | > 100 µM (inactive) | > 100 µM (inactive) | > 100 µM (inactive) | > 100 µM (inactive) | > 100 µM (inactive) | > 100 µM (inactive) | > 100 µM (inactive) | > 100 µM (inactive) | > 100 µM (inactive) | > 100 µM (inactive) | > 100 µM (inactive) | > 100 µM (inactive) | > 100 µM (inactive) | > 100 µM (inactive)
Cc1nc(Nc2nnc(-c3cc([N+](=O)[O-])cc([N+](=O)[O-])c3C)o2)sc1C(=O)CC(=O)Cc1nc2ccc(Cl)cc2nc1O | > 100 µM (inactive) | > 100 µM (inactive) | > 100 µM (inactive) | > 100 µM (inactive) | 37.3 µM (inactive) | 61.4 µM (inactive) | > 100 µM (inactive) | > 100 µM (inactive) | > 100 µM (inactive) | > 100 µM (inactive) | > 100 µM (inactive) | > 100 µM (inactive) | 41.8 µM (inactive) | > 100 µM (inactive) | > 100 µM (inactive) | 93.5 µM (inactive) | 50.5 µM (inactive) | > 100 µM (inactive) | > 100 µM (inactive) | > 100 µM (inactive)
N#CCCN(CCC#N)c1ccc(/C=C2\N=C(c3cc([N+](=O)[O-])ccc3Cl)N(NC(=O)CC(=O)Nc3ccccc3Cl)C2=O)cc1 | > 100 µM (inactive) | > 100 µM (inactive) | > 100 µM (inactive) | > 100 µM (inactive) | > 100 µM (inactive) | > 100 µM (inactive) |  | > 100 µM (inactive) | > 100 µM (inactive) | > 100 µM (inactive) | > 100 µM (inactive) | > 100 µM (inactive) | > 100 µM (inactive) | > 100 µM (inactive) | > 100 µM (inactive) | > 100 µM (inactive) | > 100 µM (inactive) | > 100 µM (inactive) |  | > 100 µM (inactive)
CCOCC(=O)N(C)c1cccc2c3c(n(C)c12)CCCCC3 | > 100 µM (inactive) |  | > 100 µM (inactive) | > 100 µM (inactive) | > 100 µM (inactive) | > 100 µM (inactive) | > 100 µM (inactive) | > 100 µM (inactive) | > 100 µM (inactive) | > 94.8 µM (inactive) | > 23.8 µM (inactive) | > 100 µM (inactive) | > 62.4 µM (inactive) | > 100 µM (inactive) | > 100 µM (inactive) | > 100 µM (inactive) | > 31.6 µM (inactive) |  | > 100 µM (inactive) | > 100 µM (inactive)
CC/C(CC(=O)CCC(=O)Nc1ccc(C)c(C)c1)=N\NC(=O)c1cc2ccccc2cc1O | 38.4 µM (inactive) | 17.1 µM (inactive) | 37 µM (inactive) | 22.1 µM (inactive) | 27.5 µM (inactive) |  | 38.5 µM (inactive) | 28.3 µM (inactive) | 19 µM (inactive) | 31.2 µM (inactive) | 39.1 µM (inactive) | 23.6 µM (inactive) | 21.8 µM (inactive) | 18.4 µM (inactive) | 20.7 µM (inactive) | 48.5 µM (inactive) |  | 21.9 µM (inactive) | 23.6 µM (inactive) | 32.9 µM (inactive)
